BigSolDB 2.1

O=C(O)c1cccnc1Cl
solubility (mole fraction)
Conditions	273.15 K	278.15 K	283.15 K	288.15 K	293.15 K	298.15 K	303.15 K	308.15 K	313.15 K
in 1,4-dioxane	–	–	–	0.0088	0.0103	0.012	0.0136	0.0155	0.0176
in DMF	0.124	0.149	0.175	0.2	0.228	0.26	0.291	0.327	0.367
in NMP	0.206	0.235	0.265	0.295	0.328	0.36	0.397	0.437	0.478
in acetone	0.00893	0.0103	0.0118	0.0133	0.0149	0.0166	0.0184	0.0205	0.0226
in acetonitrile	0.00105	0.00137	0.00174	0.00214	0.00263	0.00324	0.00399	–	–
in ethanol	0.00286	0.00363	0.00461	0.00563	0.00676	0.00804	0.00953	0.0112	0.0129
in ethyl acetate	0.0138	0.0163	0.0189	0.0218	0.0246	0.0276	0.0308	0.0344	0.0382
in isopropanol	0.00368	0.00464	0.00574	0.00697	0.0083	0.00972	0.0113	0.013	0.0147
in methanol	0.00227	0.00283	0.00347	0.00422	0.00505	0.00598	0.00696	0.00806	0.00927
in n-propanol	0.00446	0.00546	0.00667	0.00792	0.00933	0.011	0.0125	0.0144	0.0162
in water	9.1e-05	0.000104	0.00012	0.000136	0.000153	0.000171	0.000191	0.000216	0.000242
